Reference: patent US20230322815A1, “NOVEL COMPOUNDS AND THERAPEUTIC USES THEREOF” (University of Huddersfield, priority 2020, published 2023)

Tested on: HCT116 p53^−/−
Assay: Chemosensitivity (MTT, 96 h continuous exposure)
Format: cell-based, human
Experimental: FIG. 7. Chemosensitivity response of a panel of human cancer and non-cancer cell lines to 96 h continuous exposure to self-assembling test compounds. a, The potency of compounds tested against cancer (HT-29, DLD-1, HCT116 p53^+/+ and […], PSN1, MiaPaCa2, BxPC3, A549, H460 and GBM1) and non-cancer cells (ARPE-19, MCF10A and NP1). Each value represents the mean IC50±standard deviation from a minimum of three independent experiments. b,c, The selectivity index (SI) for [L2Cu3]^6+ (b) and [L2Zn3]^6+ (c) for the indicated cancer cell lines; SI is defined as the mean IC50 against the particular non-cancer cell line model divided by the mean IC50 against the particular cancer cell line. […] As the SI value is calculated using the mean IC50 values, experimental error is not included in these figures. d,e, IC50 values for the clinically approved platinates (cisplatin, oxaliplatin and carboplatin) and [L2Mn3]^6+ and the corresponding SI results.
All cell lines used were maintained at low passage in antibiotic-free media and were obtained from ATCC (LGC Standards, Middlesex, UK) unless otherwise stated (Methods). HT29, DLD-1, HCT116 p53^+/+ and HCT116 p53^−/− are all colorectal adenocarcinoma cell lines derived from different individuals and harbor different combinations of oncogenic lesions (except for the HCT116 isogenic cancer cell clones that are genetically identical except for p53 status). PSN-1, BxPC-3 and MiaPaCa2 are pancreatic carcinoma cell lines and A549 and H460 are lung carcinoma cell lines. HT29, DLD-1, PSN-1, BxPC-3, A549 and H460 cell lines were cultured in RPMI-1640 growth media (Sigma) containing 2 mM L-glutamine, 1 mM sodium pyruvate and 10% fetal bovine serum (FBS). HCT116 (p53^+/+ and p53^−/−) and MiaPaCa2 cell lines were cultured in Dulbecco's Modified Eagle's Medium (Sigma), 2 mM L-glutamine and 10% FBS. The ARPE-19 retinal epithelial non-cancer cell line (Dunn et al., 1996) was cultured in DMEM/F12 media (Gibco), 2 mM L-glutamine, 1 mM sodium pyruvate and 10% FBS. The MCF10A non-cancerous human breast epithelial cell line was cultured in Minimal Essential Media Eagle (Sigma), 2 mM L-glutamine, 1 mM sodium pyruvate, 10% FBS and 1×non-essential amino acids (NEAA). NP1 and GBM1 cells were cultured on plasticware coated with poly-L-ornithine (5 μg/ml) and laminin (2.4 μg/ml) (Polson et al., 2018; Da Silva et al., 2019). […]
[L2M3]^6+ and all the other self-assembling complexes were freshly formed by adding DMSO to individual components mixing together by pipetting. […] Media and MTT were removed and formazan crystals were dissolved in 150 μl of DMSO and the absorbance of the resulting solution determined at 540 nm. […]

SMILES: [Zn+2].[Zn+2].[Zn+2].c1ccc(-c2csc(NCCN(CCNc3nc(-c4ccccn4)cs3)CCNc3nc(-c4ccccn4)cs3)n2)nc1.c1ccc(-c2csc(NCCN(CCNc3nc(-c4ccccn4)cs3)CCNc3nc(-c4ccccn4)cs3)n2)nc1 [[L2Zn3]^6+]
- selectivity index (IC50 non-cancer cells / IC50 cancer cells) (HCT116 p53^−/− compared to ARPE-19): over 2000
- selectivity index (IC50 non-cancer cells / IC50 cancer cells) (HCT116 p53^−/− compared to MCF10A): over 2000
- IC50 (HCT116 p53^−/−, 96 h, MTT): 70 ± 13 nM
- fold more active towards HCT116 p53^−/− than HCT116 p53^+/+ (based on 96 h IC50 values): ~6 fold
